From patent US7084239B1, “Cancer peptides of NY-ESO-1/CAG-3” (The United States of America as represented by the …, priority 1997, dated 2006)
“Also recorded” adds a separate entry of the source.

Experiments:
Type in all cases: cell-based, human
[1] = system: CTL clone 14; experiment: T cell recognition of peptide-pulsed EBV B cells by CTL clone 14; conditions: peptide pulsed onto EBV B cells
Excerpt: FIGS. 6A–6H. CTL clones 2 and 14 recognize the NY-ESO-1 gene, but not the ESO10-53 peptide derived from the NY-ESO-1 protein. CTL clones 2, 14 and 5 recognized NY-ESO-1 when cotransfected with HLA-A31 cDNA into COS-7 (FIG. 6A, C, E and G). TIL1244, which recognized TRP-2 But not NY-ESO-1, was used as a specificity control. FIGS. 6B, D, F and H. CTL clones 2, 5, 14, and TIL1244 recognized 586mel. […] TIL1244 recognized the TRP197-205 peptide derived from TRP-2, 586EBV B cells alone or pulsed with the ORF3P peptide from an alternative reading frame of TRP1 were negative controls. 397mel is an HLA-A31-negative, NY-ESO-1-positive tumor line.
DNA transfection and GM-CSF assay were done as previously described (Wang, R. F., P. F. Robbins, Y. Kawakami, X. Q. Kang, and S. A. Rosenberg, 1995, J. Exp. Med. 181:799–804). Briefly, […] of DNA carrying a different fragment and 50 ng of the HLA-A31 DNA were mixed with 2 μl of lipofectamine in 100 μl of serum-free DMEM for 15–45 min. The DNA/lipofectamine mixture was then added to the COS-7 (5×10^4) cells and incubated overnight. The following day, cells were washed twice with DMEM medium. […] After 18–24 h incubation, 100 μl of supernatant was collected and GM-CSF was measured in a standard ELISA assay (R+D Systems, Minneapolis, Minn.). […]

[2] = system: CTL clone 5; experiment: GM-CSF release by CTL clone 5 on peptide-pulsed EBV B cells
Protocol: DNA transfection and GM-CSF assay were done as previously described (Wang, R. F., P. F. Robbins, Y. Kawakami, X. Q. Kang, and S. A. Rosenberg, 1995, J. Exp. Med. 181:799–804). Briefly, […] of DNA carrying a different fragment and 50 ng of the HLA-A31 DNA were mixed with 2 μl of lipofectamine in 100 μl of serum-free DMEM for 15–45 min. The DNA/lipofectamine mixture was then added to the COS-7 (5×10^4) cells and incubated overnight. The following day, cells were washed twice with DMEM medium. TIL586, CTL clone 5 or CTL clone 10 were added at a concentration of 5×10^4 cells/well in AIM-V medium containing 120 IU/ml of IL-2. After 18–24 h incubation, 100 μl of supernatant was collected and GM-CSF was measured in a standard ELISA assay (R+D Systems, Minneapolis, Minn.). For peptides, 586EBV, 1510EBV and T2 cells were incubated with peptides at 37° C. for 90 min, and then washed three times with AIM-V medium containing 120 IU/ml of IL-2. T cells were added and incubated for additional 18–24 h, 100 μl of supernatant was collected for GM-CSF assay. In some experiments, IFN-γ release assays were done using a standard ELISA kit (Endogen, Woburn, Mass.).
These peptides were pulsed onto HLA-A31-positive 1510EBV B cells and tested for their ability to stimulate cytokine release by CTL clone 5. […] CTL clone 10 recognized the same peptide as CTL clone 5 (data not shown). […] The reactivity of CTL clone 5 was undetectable when either the ESO9-54 or the ESO10-127 peptides were used at concentrations below 100 nM to sensitize EBV cells.

[3] = system: CTL clone 5; experiment: Chromium release cytolysis of peptide-pulsed target cells by CTL clone 5
Protocol: FIGS. 5A–5C. Characterization of the 9-mer ESO9-54 and 10-mer ESO10-53 derived from the normal open reading frame. FIG. 5A. 586EBV or 1510EBV B cells were pulsed with ESO10-53 and ESO9-54 peptides at different concentrations for 120 min. After two washes with AIM-V medium with 120 IU IL-2, CTL clone 5 (1×10^5/well) was added and incubated for 18 to 24 h. GM-CSF release by CTL clone 5 was determined by ELISA. FIG. 5B. 586mel cells were lysed by CTL clone 5, but 397mel cells were not lysed by CTL clone 5 at different E:T ratios. FIG. 5C. 586EBV and 1510EBV B cells were labeled with chromium overnight. The ESO10-53 peptide was then pulsed on the chromium-labeled 586EBV, 1510EBV, and T2 cells for 120 min. An irrelevant peptide containing an HLA-A31 peptide-binding motif was also pulsed on chromium-labeled 586EBV, 1510EBV B cells as negative controls. After peptide incubation and two washes, cytolysis of target cells by CTL clone 5 was determined in a 4-h chromium release assay. T2 pulsed with the ESO10-53 peptide was used for the specificity control.
Cytolytic assay was done as previously described (Kawakami, Y et al., 1994, Proc. Natl. Acad. Sci. USA 91:6458–62). Briefly, the target cells were labeled with chromium for 90 min. After washing three times, the cells were incubated with peptides at a concentration of 1 μg/ml for 90 min. The cells were washed again, counted, and then mixed with TIL586 or CTL clone 5 at the indicated ratio of effector: targets (E:T). Chromium release was measured after 4 h incubation. The peptides were synthesized by a solid-phase method using a peptide synthesizer (Model AMS 422, Gilson Co., Inc., Worthington, Ohio). Some peptides were purified by HPLC and had greater than 98% in purity. […] Percentage of specific lysis was determined from the equation (A−B)/(C−B)×100 where A is lysis of 586EBV B cells by TIL586 or clone 5 in the presence of a peptide, B is spontaneous release from 586EBV B cells in presence of the same peptide but in the absence of effector cells, and C is the maximum chromium release. […]

Sequence: ASGPGGGAPR (listed as Homo sapiens) [ESO10-53]
- Recognition by CTL clone 14, in words [1]: did not recognize
- Recognition by CTL clone 14, in words ([1]; listed as ESO 10-53): failed to recognize
- GM-CSF release by CTL clone 5, EXPT. 2 (586EBV) ([2]; 586EBV cells, peptide 0.1 μg/ml for 90 min, 5 × 10^4 CTL clone 5): 1044 (SEQ. ID NO: 25)
- CTL clone 5 GM-CSF release ([2]; 1510EBV cells incubated with peptide at 0.1 μg/ml for 90 min): >2000 (SEQ. ID NO: 25) pg/ml
- GM-CSF release by CTL clone 5, EXPT. 1 (1510EBV) ([2]; 1510EBV cells, peptide 0.1 μg/ml for 90 min, 5 × 10^4 CTL clone 5): 1097
- Plateau of GM-CSF release from CTL clone 5 in peptide titration ([2]; at 10 μM peptide concentration (FIG. 5A)): no plateau was reached
- Recognition by CTL clone 5 (cytokine release), in words ([2]; peptide pulsed onto HLA-A31-positive 1510EBV or 586EBV B cells): strongly recognized; also recorded: recognized
- Peptide concentration at which CTL clone 5 reactivity is detectable ([2]; peptide titration on EBV B cells, GM-CSF release): ≤ 10 nM
- Lysis of peptide-incubated 586EBV or 1510EBV by CTL clone 5 ([3]; E:T ratio of 2.5:1, 4-h chromium release): 5–10%
- Lysis of peptide-incubated 586EBV or 1510EBV by CTL clone 5 ([3]; E:T ratio of 40:1, 4-h chromium release): > 60%
- Lysis of HLA-A31-negative T2 cells pulsed with peptide by CTL clone 5 ([3]; T2 cells, specificity control (FIG. 5C)): nor did it lyse
